Assay results: the supplement of paper PMC13380429

Legend:
Settings in all cases: 72 h
Vero E6 [1] = experiment: cell viability relative to DMSO; higher = less toxic
U2OS [2] = experiment: as above
Calu-3 [3] = experiment: as above
HepG2 [4] = experiment: as above
Caco-2 [5] = experiment: as above
Vero E6 [6] = experiment: drug sensitivity score (DSS) for viability; higher = more toxic; extreme values may be limits of the assay
U2OS [7] = experiment: as above
Calu-3 [8] = experiment: as above
HepG2 [9] = experiment: as above
Caco-2 [10] = experiment: as above
Vero E6 [11] = experiment: relative viability EC50 (midpoint between 100% and the lowest measured viability); higher = less toxic
U2OS [12] = experiment: as above
Calu-3 [13] = experiment: as above
HepG2 [14] = experiment: as above
Caco-2 [15] = experiment: as above

Structure (SMILES)	cell viability (Vero E6 [1]; 1 nM)	cell viability (Vero E6 [1]; 10 nM)	cell viability (Vero E6 [1]; 100 nM)	cell viability (Vero E6 [1]; 1000 nM)	cell viability (Vero E6 [1]; 10000 nM)	cell viability (U2OS [2]; 1 nM)	cell viability (U2OS [2]; 10 nM)	cell viability (U2OS [2]; 100 nM)	cell viability (U2OS [2]; 1000 nM)	cell viability (U2OS [2]; 10000 nM)	cell viability (Calu-3 [3]; 1 nM)	cell viability (Calu-3 [3]; 10 nM)	cell viability (Calu-3 [3]; 100 nM)	cell viability (Calu-3 [3]; 1000 nM)	cell viability (Calu-3 [3]; 10000 nM)	cell viability (HepG2 [4]; 1 nM)	cell viability (HepG2 [4]; 10 nM)	cell viability (HepG2 [4]; 100 nM)	cell viability (HepG2 [4]; 1000 nM)	cell viability (HepG2 [4]; 10000 nM)	cell viability (Caco-2 [5]; 1 nM)	cell viability (Caco-2 [5]; 10 nM)	cell viability (Caco-2 [5]; 100 nM)	cell viability (Caco-2 [5]; 1000 nM)	cell viability (Caco-2 [5]; 10000 nM)	drug sensitivity score (Vero E6 [6])	drug sensitivity score (U2OS [7])	drug sensitivity score (Calu-3 [8])	drug sensitivity score (HepG2 [9])	drug sensitivity score (Caco-2 [10])	relative viability EC50 (Vero E6 [11])	relative viability EC50 (U2OS [12])	relative viability EC50 (Calu-3 [13])	relative viability EC50 (HepG2 [14])	relative viability EC50 (Caco-2 [15])
O=C(Nc1ccccc1)c1cc([N+](=O)[O-])ccc1Cl [GW-9662]	103%	106%	98.2%	99.9%	97.7%	106%	91.7%	101%	91.6%	96.8%	93.7%	93.6%	101%	100%	96.7%	94.9%	100%	90%	102%	88.3%	98%	94.1%	103%	90.1%	93.3%	0	0	0	0	0	> 10 µM	> 10 µM	> 10 µM	> 10 µM	> 10 µM
CC(C)OC(=O)[C@H](C)N[P@@](=O)(OC[C@H]1O[C@@H](n2ccc(=O)[nH]c2=O)[C@](C)(F)[C@@H]1O)Oc1ccccc1 [PSI-7976]	95.2%	101%	91.4%	99%	108%	98.2%	93.6%	101%	99%	96.8%	104%	85.4%	96.7%	93.3%	94.2%	89.5%	103%	92.6%	109%	113%	105%	88.7%	103%	90.2%	101%	0	0	0	0	0	> 10 µM	> 10 µM	> 10 µM	> 10 µM	> 10 µM
N#CN=C(NCCCCCCOc1ccc(Cl)cc1)Nc1ccncc1 [GMX1778]	98.3%	99%	101%	1.7%	1.2%	102%	110%	0.1%	-0.3%	-0.5%	104%	102%	7.1%	4.8%	3.9%	109%	26%	19.5%	16.3%	8.4%	104%	102%	3.2%	3.5%	3.2%	17.6	29.7	28.8	36.6	29.3	0.326 µM	0.0363 µM	0.0356 µM	0.0058 µM	0.0332 µM
NC(=O)CN1CCCC1=O [piracetam]	93.3%	98.3%	91.7%	93.3%	92%	100%	102%	100%	97.7%	102%	110%	97.7%	112%	109%	97.9%	92.1%	103%	98%	98.5%	105%	102%	91.2%	98.7%	96.6%	102%	0	0	0	0	0	> 10 µM	> 10 µM	> 10 µM	> 10 µM	> 10 µM
COc1ccc(CN(CCN(C)C)c2ncccn2)cc1 [thonzylamine]	102%	102%	98.1%	104%	95.9%	97.2%	101%	96%	98.3%	105%	96.2%	103%	96.9%	92.5%	101%	93.2%	103%	97.6%	102%	98.9%	99.7%	104%	93.8%	101%	105%	0	0	0	0	0	> 10 µM	> 10 µM	> 10 µM	> 10 µM	> 10 µM
COC1(C2=NCCN2)COc2ccccc2O1 (stereo not given)	103%	96%	93.3%	100%	98.2%	96.2%	95.1%	103%	97.9%	101%	100%	103%	96%	93%	94.6%	109%	109%	91.2%	107%	99.3%	99.5%	91.5%	101%	89.7%	91.4%	0	0	0	0	0	> 10 µM	> 10 µM	> 10 µM	> 10 µM	> 10 µM
Cc1cc(Cn2nnc3c(-c4ccco4)nc(N)nc32)ccc1N [vipadenant]	109%	105%	99.7%	92.8%	88.7%	99.6%	97.7%	98.2%	98.7%	101%	108%	103%	108%	94.1%	107%	81.9%	80.5%	99%	91.8%	96.3%	110%	106%	115%	113%	97.1%	0.2	0	0	0	0	> 10 µM	> 10 µM	> 10 µM	> 10 µM	> 10 µM
Cc1cc2c(s1)Nc1ccccc1N=C2N1CCN(C)CC1 [olanzapine]	96.4%	96.8%	96%	92.7%	104%	93.1%	99%	95.2%	99.6%	102%	99%	102%	104%	104%	108%	118%	110%	121%	98.5%	106%	97.8%	91.5%	98.1%	99.1%	103%	0	0	0	0	0	> 10 µM	> 10 µM	> 10 µM	> 10 µM	> 10 µM
CC(C)[C@H]1c2ccc(F)cc2CC[C@@]1(CCN(C)CCCc1nc2ccccc2[nH]1)OC(=O)C1CC1 [NNC-55-0396]	95.2%	96.1%	93.5%	89.4%	-0.1%	98.9%	99.1%	94.4%	97.2%	2.8%	106%	105%	100%	99.7%	2.2%	109%	104%	98.7%	96.8%	0%	85.5%	102%	93.6%	97.2%	4.5%	7.3	5.8	5.5	6	5.7	2.29 µM	2.96 µM	3.14 µM	2.93 µM	2.95 µM
COc1ccc(COc2ccc(CC#N)cc2)cc1 [O4I1]	100%	99.4%	99.1%	95%	87.4%	102%	106%	96.2%	104%	95.4%	104%	93.3%	103%	89.4%	102%	100%	97%	98.6%	95.4%	94.7%	94.7%	93.9%	96.3%	92.9%	92.2%	0.2	0	0	0	0	> 10 µM	> 10 µM	> 10 µM	> 10 µM	> 10 µM
O=S(=O)(N[C@H](CO)C(C(F)(F)F)C(F)(F)F)c1ccc(Cl)s1 [begacestat]	99.6%	101%	105%	95.7%	84.6%	100%	94.2%	102%	89.7%	93.6%	99.4%	102%	108%	104%	96.7%	99.1%	106%	88%	96.5%	96.6%	118%	102%	99.8%	96.1%	109%	0.7	0	0	0	0	> 10 µM	> 10 µM	> 10 µM	> 10 µM	> 10 µM
O=C(O)c1ccc(-c2ccc3cc(O)c(C45CC6CC(CC(C6)C4)C5)cc3c2)cc1 [CD-1530]	93.4%	103%	95.8%	106%	103%	98.2%	96%	97.7%	93%	86.2%	95.9%	99.6%	98.8%	98.5%	88%	108%	102%	97.4%	124%	106%	90.9%	98.9%	94.9%	84.4%	88%	0	0.1	0.1	0	0.4	> 10 µM	> 10 µM	> 10 µM	> 10 µM	> 10 µM
NCC(CC(=O)O)c1ccccc1 (stereo not given) [fenigam]	100%	95.8%	97.6%	101%	111%	93.5%	91.1%	97.3%	95.4%	98.3%	95.4%	97.6%	100%	97.4%	97.4%	95.1%	97.2%	92.4%	106%	110%	93.3%	105%	101%	87.8%	112%	0	0	0	0	0	> 10 µM	> 10 µM	> 10 µM	> 10 µM	> 10 µM
CCOC(=O)[C@H](CCc1ccccc1)N[C@H]1CCc2ccccc2N(CC(=O)O)C1=O [benazepril]	103%	104%	96.1%	109%	99.2%	99.1%	94%	102%	93.8%	93.4%	94.9%	97.5%	111%	97.8%	108%	112%	101%	95.4%	104%	96.9%	99.1%	90.8%	106%	101%	94.6%	0	0	0	0	0	> 10 µM	> 10 µM	> 10 µM	> 10 µM	> 10 µM
Nc1ncc(Cc2ccc(Br)cc2)s1	99.9%	94%	100%	92.2%	107%	93.5%	102%	94.9%	101%	102%	95.6%	91.8%	103%	94.3%	119%	98%	88.6%	115%	96.3%	99.9%	97.3%	95.1%	85.2%	99.3%	96.7%	0	0	0	0	0	> 10 µM	> 10 µM	> 10 µM	> 10 µM	> 10 µM
